Source: patent US20240300914A1, “KC2-Type Lipids” (NanoVation Therapeutics Inc., priority 2021, published 2024)
Converted amounts (≈) assume the structure as drawn.

Key:
FVII = conditions: mice, siRNA formulations; Jayaraman et al. 2012; cited from earlier work
[1] = tested on: 22Rv1 cells modified to stably express luciferase; assay: Luciferase knockdown by siRNA-LNPs in 22Rv1 cells; type: cell-based; conditions: Homo sapiens; siRNA-LNP 50/10/38.5/1.5, N/P 3; 22Rv1 luciferase cells; read-out: half maximal effective siRNA concentration (EC50)
Protocol: The LNPs contain 50/10/38.5/1.5 mol % of ionizable lipid/DSPC/chol/PEG-DMG (N/P=3) and the siRNA encodes luciferase.
An siRNA targeted against firefly luciferase purchased from Integrated DNA Technologies (IDT, Coralville, IA) was used to assess ability of LNP to knockdown firefly luciferase in a cell line.
LNP formulations containing the ionizable lipids, nor-KC2 or MC3, DSPC, cholesterol, and PEG-DMG were prepared containing siRNA encoding luciferase. The lipid nanoparticles comprise 50/10/38.5/1.5 mol % of ionizable lipid/DSPC/chol/PEG-DMG and the nitrogen-to-phosphorus ratio (N/P) was 3.

Row | EC50 [1] [µg/mL] | SMILES | ED50 for FVII gene silencing (FVII) [mg/kg]
1 | – | CCCCC/C=C\C/C=C\CCCCCCCCC1(CCCCCCCC/C=C\C/C=C\CCCCC)OCC(CCN(C)C)O1 (stereo not drawn) [KC2] | 0.1
2 | 0.131 (≈ 0.204 µM) | CCCCC/C=C\C/C=C\CCCCCCCCC(CCCCCCCC/C=C\C/C=C\CCCCC)OC(=O)CCCN(C)C [MC3, dilinoleyl-methyl-4-dimethylaminobutyrate] | –
3 | 0.137 (≈ 0.224 µM) | CCCCC/C=C\C/C=C\CCCCCCCC1(CCCCCCC/C=C\C/C=C\CCCCC)OCC(CCN(C)C)O1 (stereo not drawn) [nor-KC2, 2-(2,2-Di((8Z,11Z)-heptadeca-8,11-dien-1-yl)-1,3-dioxolan-4-yl)-N,N-dimethylethan-1-amine] | –
